Data published in patent US20090214466A1 (priority 2006, published 2009).

Experiments:
Conditions in all cases: human, in vivo
migraine symptoms [1] = tested on: migraine symptoms
migraine symptoms [2] = tested on: migraine symptoms; remark: listed apart in the source
[3] = tested on: symptoms of post-laminectomy syndrome

Substance: botulinum toxin type A [BOTOX® botulinum toxin type A]
- frequency, severity, and duration of migraine symptoms (migraine symptoms [1]): Reduction in the frequency, severity, and duration of migraine symptoms was reported

Substance: etanercept [ENBREL® etanercept]
- frequency and severity of migraine symptoms (migraine symptoms [2]): Reduction in the frequency and severity of migraine symptoms was reported

Substance: infliximab [REMICADE® infliximab]
- symptoms of post-laminectomy syndrome [3]: reduced symptoms
